Reference: article PMC8658773, “Two New Isoprenoid Flavonoids from Sophora flavescens with Antioxidant and Cytotoxic Activities” (Molecules, 2021)
Blank lines part the entries; values can stand above or below the compound they belong to.

Legend:
HepG2 cells = assay: Cytotoxic activity (MTS assay), HepG2; type: cell-based, human; details: Homo sapiens, HepG2, 10 µM; SD in brackets; read-out: HepG2 cell inhibitory activity (Table S4)
[1] = PTIO free radical scavenging assay; type: biochemical; details: for PTIO radical scavenging activity (inhibition rate): 8 μg/mL, SD in brackets
Protocol: PTIO free radical scavenging was also performed following previous reports with some modification. VC was used as the positive control. PTIO radicals were dissolved with phosphate buffer (PBS) (pH 7.4, 50 mM) with a concentration of 0.05 mg/mL. Then, the samples (40 µL, 40 µg/mL) and PTIO solution (160 µL) were added into 96-well plates (as the value of Ai). After being thoroughly mixed, the reaction solution was incubated at 37 °C in a water-bath for 2 h. Then, the absorbance was measured at 557 nm. PTIO free radical scavenging was calculated using the above equation. (40 µL PBS with 160 µL PTIO as A0, 40 µL compounds with 160 µL PBS as Aj).

[2] = DPPH free radical scavenging assay; type: biochemical; details: for DPPH radical scavenging activity (inhibition rate): 20 μg/mL, SD in brackets
Protocol: The in vitro antioxidant activity tests were conducted according to previous reports. Among them, the DPPH free radical scavenging assay was slightly modified. Briefly, the DPPH material was precisely weighed, ethanol solution was added to obtain a concentration of 0.1 mmol/L (to use immediately, or store in the dark). Then, the compounds (100 µL, 40 µg/mL) with DPPH solution (100 µL) (Ai) were added to 96-well plates and incubated for 30 min at room temperature. Subsequently, the activity was measured using the Thermo Scientific Varioskan LUX ([…], VL0L00D0, USA), with an absorbance of 570 nm. Vitamin C (VC) (40 µg/mL) was used as the positive control.

[3] = ABTS free radical scavenging assay; type: biochemical; details: for ABTS radical scavenging activity (inhibition rate): 20 μg/mL, SD in brackets
Protocol: The third assay, the ABTS free radical scavenging screen was performed by previous experiments with slight changes. First, we needed to prepare for the ABTS^+ solution. […] Then, they were mixed with equal volume at room temperature and kept away from light for 12 h, the mixed solution was diluted with ethanol until the absorbance of […]. Thus, the ABTS^+ solution was obtained. Furthermore, the compounds (100 µL, 40 µg/mL) with ABTS^+ solution (100 µL) were also added to the 96-well plates (as the value of Ai) and were interacted for 10 min at room temperature in the dark, then the absorbance at 734 nm was measured. VC was used as the positive control. Antioxidant capacity was calculated according to the first formula (the value of 100 µL ethanol with 100 µL ABTS^+ solution as A0, the value of 100 µL compounds with 100 µL ethanol as Aj). All experiments were carried out in triplicate.

LO2 cells = assay: Cytotoxic activity (MTS assay), LO2 normal cells; type: cell-based, human; details: Homo sapiens, L02; 10 µM; SD in brackets; read-out: LO2 cell inhibitory activity (Table S7)
A549 cells = assay: Cytotoxic activity (MTS assay), A549; type: cell-based, human; details: Homo sapiens, A549; 10 µM; SD in brackets; read-out: A549 cell inhibitory activity (Table S5)
MCF7 cells = assay: Cytotoxic activity (MTS assay), MCF7; type: cell-based, human; details: Homo sapiens, MCF7; 10 µM; SD in brackets; read-out: MCF-7 cell inhibitory activity (Table S6)

SMILES: O=c1c(-c2ccc(O)cc2)coc2cc(O)cc(O)c12 [Compound 18, genistein]
inhibition at 10 µM (HepG2 cells): 1%
PTIO radical scavenging activity (inhibition rate) [1]: 35.8% (2.0%)
DPPH radical scavenging activity (inhibition rate) [2]: 28.0% (6.2%)
ABTS radical scavenging activity (inhibition rate) [3]: 69.0% (1.4%)
inhibition at 10 µM (LO2 cells): 5%
inhibition at 10 µM (A549 cells): 6.6%
inhibition at 10 µM (MCF7 cells): 4.3%

SMILES: O=C1O[C@H]([C@@H](O)CO)C(O)=C1O [VC, vitamin C, reference compound]
DPPH radical scavenging activity (inhibition rate) [2]: 97%

SMILES: O=c1ccc2ccc(O)cc2o1 [Compound 24, 7-hydroxycoumarin]
PTIO radical scavenging activity (inhibition rate) [1]: 36.6% (3.1%)
DPPH radical scavenging activity (inhibition rate) [2]: 25.2% (3.7%)
ABTS radical scavenging activity (inhibition rate) [3]: 16.8% (3.2%)
inhibition at 10 µM (LO2 cells): -0.3%
inhibition at 10 µM (A549 cells): 21.4%
inhibition at 10 µM (MCF7 cells): 5.7%

PTIO radical scavenging IC50 [1]: 2.70 µg/mL
DPPH radical scavenging IC50 [2]: 2.42 µg/mL
ABTS radical scavenging IC50 [3]: 1.91 µg/mL
SMILES: CC(C)=CCc1c(O)cc(O)c2c(=O)c(O)c(-c3ccc(O)cc3)oc12 [Compound 15, noranhyoicaritin]
inhibition at 10 µM (HepG2 cells): 8.8%
PTIO radical scavenging activity (inhibition rate) [1]: 68.0% (8.1%)
inhibition at 10 µM (LO2 cells): 7.7%
inhibition at 10 µM (A549 cells): 13.4%
inhibition at 10 µM (MCF7 cells): 5.8%

SMILES: O=c1c(O)c(-c2ccc(O)c(O)c2)oc2cc(O)cc(O)c12 [Compound 16, quercetin]
inhibition at 10 µM (HepG2 cells): 4.6%
PTIO radical scavenging IC50 [1]: 4.71 µg/mL
PTIO radical scavenging activity (inhibition rate) [1]: 62.0% (2.2%)
DPPH radical scavenging IC50 [2]: 1.11 µg/mL
ABTS radical scavenging IC50 [3]: 0.90 µg/mL
inhibition at 10 µM (LO2 cells): 9.8%
inhibition at 10 µM (A549 cells): 12.1%
inhibition at 10 µM (MCF7 cells): 11.9%

SMILES: O=C1C[C@@H](c2ccc(O)cc2)Oc2cc(O)cc(O)c21 [Compound 11, naringenin]
inhibition at 10 µM (HepG2 cells): 3.6%
PTIO radical scavenging activity (inhibition rate) [1]: 37.8% (2.2%)
DPPH radical scavenging activity (inhibition rate) [2]: 24.5% (3.9%)
ABTS radical scavenging activity (inhibition rate) [3]: 55.4% (2.2%)
inhibition at 10 µM (LO2 cells): 5.8%
inhibition at 10 µM (A549 cells): 14.7%
inhibition at 10 µM (MCF7 cells): 0.7%

SMILES: COc1ccc(-c2coc3cc(O)ccc3c2=O)cc1 [Compound 20, formononetin]
inhibition at 10 µM (HepG2 cells): 1.4%
PTIO radical scavenging activity (inhibition rate) [1]: 36.2% (2.0%)
DPPH radical scavenging activity (inhibition rate) [2]: 20.2% (1.0%)
ABTS radical scavenging activity (inhibition rate) [3]: 23.3% (0.9%)
inhibition at 10 µM (LO2 cells): 5.8%
inhibition at 10 µM (A549 cells): -6.2%
inhibition at 10 µM (MCF7 cells): 8.7%

DPPH radical scavenging IC50 [2]: 0.90 µg/mL
ABTS radical scavenging IC50 [3]: 1.51 µg/mL
SMILES: O=c1cc(-c2ccc(O)c(O)c2)oc2cc(O)cc(O)c12 [Compound 23, luteolin]
inhibition at 10 µM (HepG2 cells): 1.1%
PTIO radical scavenging activity (inhibition rate) [1]: 43.3% (2.0%)
inhibition at 10 µM (LO2 cells): 19.8%
inhibition at 10 µM (A549 cells): 41.3%
inhibition at 10 µM (MCF7 cells): -4.7%

SMILES: O=C(/C=C/c1ccc(O)cc1)c1ccc(O)cc1O [Compound 8, isoliquiritigenin]
inhibition at 10 µM (HepG2 cells): 1.7%
inhibition at 10 µM (LO2 cells): -2.1%
inhibition at 10 µM (A549 cells): -5.7%
inhibition at 10 µM (MCF7 cells): 7.2%

SMILES: COc1cc(O)c(CC=C(C)C)c(O)c1C(=O)/C=C/c1ccc(O)cc1 [Compound 7, xanthohumol]
inhibition at 10 µM (HepG2 cells): 10.4%
PTIO radical scavenging activity (inhibition rate) [1]: 40.3% (1.4%)
DPPH radical scavenging activity (inhibition rate) [2]: 34.7% (1.9%)
ABTS radical scavenging activity (inhibition rate) [3]: 87.9% (2.0%)
inhibition at 10 µM (LO2 cells): 13.9%
inhibition at 10 µM (A549 cells): 16.4%
inhibition at 10 µM (MCF7 cells): 11.7%

ABTS radical scavenging IC50 [3]: 3.72 µg/mL
SMILES: CC(C)=CCC(Cc1c(O)cc(O)c2c1OC(c1ccc(O)cc1O)CC2=O)C(C)CO (stereo not shown) [Compound 9, kushenol Q]
inhibition at 10 µM (HepG2 cells): 3.5%
PTIO radical scavenging activity (inhibition rate) [1]: 36.7% (0.8%)
DPPH radical scavenging activity (inhibition rate) [2]: 30.4% (5.4%)
inhibition at 10 µM (LO2 cells): 5.3%
inhibition at 10 µM (A549 cells): -10.9%
inhibition at 10 µM (MCF7 cells): 4.5%

SMILES: COc1ccc(C(=O)O)c(O)c1 [Compound 26, 4-methoxysalicylic acid]
inhibition at 10 µM (HepG2 cells): 1.5%
PTIO radical scavenging activity (inhibition rate) [1]: 37.7% (1.6%)
DPPH radical scavenging activity (inhibition rate) [2]: 25.4% (4.9%)
ABTS radical scavenging activity (inhibition rate) [3]: 72.9% (3.0%)
inhibition at 10 µM (LO2 cells): -6.2%
inhibition at 10 µM (A549 cells): 9.4%
inhibition at 10 µM (MCF7 cells): 0.7%

SMILES: O=C(O)c1ccc(O)cc1 [Compound 28, 4-hydroxybenzoic acid]
inhibition at 10 µM (HepG2 cells): 10.2%
PTIO radical scavenging activity (inhibition rate) [1]: 37.3% (2.3%)
DPPH radical scavenging activity (inhibition rate) [2]: 20.4% (8.6%)
ABTS radical scavenging activity (inhibition rate) [3]: 2.2% (0.9%)
inhibition at 10 µM (LO2 cells): 2.8%
inhibition at 10 µM (A549 cells): 15.5%
inhibition at 10 µM (MCF7 cells): 1.1%

DPPH radical scavenging IC50 [2]: 0.80 µg/mL
SMILES: O=c1ccc2ccc(O)c(O)c2o1 [Compound 25, 7,8-dihydroxycoumarin]
inhibition at 10 µM (HepG2 cells): 8.5%
PTIO radical scavenging activity (inhibition rate) [1]: 46.3% (4.8%)
ABTS radical scavenging activity (inhibition rate) [3]: 97.8% (1.8%)
inhibition at 10 µM (LO2 cells): 8.6%
inhibition at 10 µM (A549 cells): 32.4%
inhibition at 10 µM (MCF7 cells): 4.8%

ABTS radical scavenging IC50 [3]: 2.91 µg/mL
SMILES: COc1cc(O)c2c(=O)c(-c3ccc(O)c(OC)c3)coc2c1 [Compound 17, 7,3′-di-O-methyl]
inhibition at 10 µM (HepG2 cells): 8.7%
PTIO radical scavenging activity (inhibition rate) [1]: 38.9% (2.4%)
DPPH radical scavenging activity (inhibition rate) [2]: 42.0% (1.4%)
inhibition at 10 µM (LO2 cells): 1.1%
inhibition at 10 µM (A549 cells): 40.9%
inhibition at 10 µM (MCF7 cells): 5.3%

ABTS radical scavenging IC50 [3]: 1.31 µg/mL
SMILES: C=C(C)[C@H](CCC(C)(C)O)Cc1c(O)cc(OC)c2c1O[C@H](c1ccc(O)cc1O)CC2=O [Compound 12, kurarinol]
inhibition at 10 µM (HepG2 cells): 0.9%
PTIO radical scavenging activity (inhibition rate) [1]: 37.5% (1.7%)
DPPH radical scavenging activity (inhibition rate) [2]: 30.8% (1.9%)
inhibition at 10 µM (LO2 cells): 11.4%
inhibition at 10 µM (A549 cells): 37%
inhibition at 10 µM (MCF7 cells): 4.8%

SMILES: COc1ccc(-c2coc3cc(O)cc(O)c3c2=O)cc1 [Compound 21, biochanin A]
inhibition at 10 µM (HepG2 cells): 7.1%
PTIO radical scavenging activity (inhibition rate) [1]: 37.9% (0.6%)
DPPH radical scavenging activity (inhibition rate) [2]: 46.8% (1.8%)
ABTS radical scavenging activity (inhibition rate) [3]: 76.4% (1.3%)
inhibition at 10 µM (LO2 cells): 5.8%
inhibition at 10 µM (A549 cells): 8.7%
inhibition at 10 µM (MCF7 cells): 1%

SMILES: C=C(C)C(CCC(C)(C)O)Cc1cc(O)c(C(=O)/C=C/c2ccc(O)cc2O)c(OC)c1O (stereo not shown) [Compound 5, kuraridinol]
inhibition at 10 µM (HepG2 cells): 5.6%
PTIO radical scavenging activity (inhibition rate) [1]: 37.7% (1.8%)
DPPH radical scavenging activity (inhibition rate) [2]: 29.1% (8.7%)
ABTS radical scavenging activity (inhibition rate) [3]: 75.7% (1.5%)
inhibition at 10 µM (LO2 cells): -7.2%
inhibition at 10 µM (A549 cells): -0.2%
inhibition at 10 µM (MCF7 cells): 7.4%

SMILES: COc1ccc(-c2coc3cc(O)ccc3c2=O)cc1O [Compound 19, calycosin]
inhibition at 10 µM (HepG2 cells): 4.3%
PTIO radical scavenging activity (inhibition rate) [1]: 37.0% (0.7%)
DPPH radical scavenging activity (inhibition rate) [2]: 25.6% (1.1%)
ABTS radical scavenging activity (inhibition rate) [3]: 51.3% (2.4%)
inhibition at 10 µM (LO2 cells): 16.6%
inhibition at 10 µM (A549 cells): 6.4%

SMILES: O=C(O)c1ccc(O)cc1O [Compound 27, b-resorcylic acid]
inhibition at 10 µM (HepG2 cells): 1.9%
DPPH radical scavenging activity (inhibition rate) [2]: 23.1% (2.5%)
ABTS radical scavenging activity (inhibition rate) [3]: 63.4% (1.4%)
inhibition at 10 µM (LO2 cells): 1.9%
inhibition at 10 µM (A549 cells): 22.8%
inhibition at 10 µM (MCF7 cells): 14.1%
